Measured values: US10183014B2, “Ocular formulations for drug-delivery and protection of the anterior segment of the eye” (PanOptica, Inc., priority 2014, dated 2019)
Read-outs that look alike come from different tables or passages of the source.

Experiment: Ocular pharmacokinetics of formulations, Example 20-5
Format: in vivo, Dutch Belted rabbits
Protocol: The study design (Table 19-1) consisted of forty-seven (47) Dutch Belted rabbits, each receiving a 30 μL bilateral topical ocular dose. Various suspension formulations of the present application were evaluated and compared against a cyclodextrin-based eye drops solution (Control Group 1, Table 19-1). Formula II or Compound-I was used in the test suspensions as well as the Eye Drops solution.
Ocular sampling occurred one hour following the first daily dose on Day 5 for all groups. Whole blood samples using K2EDTA as an anticoagulant were collected from all animals on Day 5, 1 hour post dose. The whole blood was placed on ice until samples were spun in a centrifuge to separate the plasma. Aqueous humor, conjunctiva, cornea, central retina, peripheral retina, central choroid, and peripheral choroid samples were collected following necropsy. Samples were then frozen at −70° C. or lower. For all Groups 1-15, plasma, central retina, central choroid, and cornea samples were assayed. For Group 5 only, samples were analyzed for Vitamin K3.
An analytical method for the analysis of Vitamin K3 was determined in plasma, central retina, central choroid, and cornea samples from Group 5 animals. A calibration curve prepared in control vitreous humor was used to determine the concentration of Vitamin K3. Internal standard (IS) responses were inconsistent for the central choroid and plasma samples. Thus, positive plasma results were likely due to the reduced IS response.

Compound: Cl.NC(=O)c1c(OCc2c(F)cc(Br)cc2F)nsc1NC(=O)NCCCCN1CCCC1 [Compound-I, 3-[(4-bromo-2,6-difluorophenyl)methoxy]-5-[[[[4-(1-pyrrolidinyl)butyl]amino]carbonyl]amino]-4-isothiazolecarboxamide hydrochloride]
- concentration at 1 h (Dutch Belted, rabbit, central choroid, topical, 1 mg/mL (30 μL per eye, bilateral), Group 7: 1 mg/mL suspension, 50 μm particles, TRIS 0.60%, glycerol 2%, HEC 0.2%, HPMC 0.08%, Vitamin K3 1 μM, pH 6, QD for 4 days, 1 hr post dose on Day 5, read-out: Central Choroid concentration): 59 nM
- concentration at 1 h (Dutch Belted, rabbit, central choroid, topical, 2 mg/mL (30 μL per eye, bilateral), Group 9: 2 mg/mL suspension, 50 μm particles, TRIS 0.60%, glycerol 2%, HEC 0.2%, HPMC 0.08%, Vitamin K3 1 μM, pH 6, QD for 4 days, 1 hr post dose on Day 5, read-out: Central Choroid concentration): 90.8 nM
- concentration at 1 h (Dutch Belted, rabbit, central choroid, topical, 4 mg/mL (30 μL per eye, bilateral), Group 5: 4 mg/mL suspension (Control), 30 μm particles (Table 19-1) / Native (≈50) (Table 19-2), TRIS 0.60%, glycerol 2%, HEC 0.2%, HPMC 0.08%, Vitamin K3 1 μM, pH 6, QD for 4 days, 1 hr post dose on Day 5, read-out: Central Choroid concentration): 129 nM
- concentration at 1 h (Dutch Belted, rabbit, central choroid, topical, 4 mg/mL, 30 μL per eye, pH 6, Group 1: 4 mg/mL Ophthalmic Solution, pH 6 (Control), QD for 4 days, 1 hr post dose on Day 5, read-out: Central Choroid concentration): 129 nM
- concentration at 1 h (Dutch Belted, rabbit, central choroid, topical, 4 mg/mL, 30 μL per eye, pH 6, read-out: Central Choroid concentration): 151 nM
- concentration at 1 h (Dutch Belted, rabbit, central choroid, topical, 30 μL per eye, Group 10: 2 mg/mL suspension, 50 μm particles, TRIS 0.60%, glycerol 2%, HEC 0.2%, HPMC 0.08%, Vitamin K3 1 μM, pH 6, BID for 4 days, 1 hr post dose on Day 5, read-out: Central Choroid concentration): 116 nM
- concentration at 1 h (Dutch Belted, rabbit, central choroid, topical, 30 μL per eye, Group 11: 6 mg/mL suspension, 50 μm particles, TRIS 0.60%, glycerol 2%, HEC 0.2%, HPMC 0.08%, Vitamin K3 1 μM, pH 6, QD for 4 days, 1 hr post dose on Day 5, read-out: Central Choroid concentration): 148 nM
- concentration at 1 h (Dutch Belted, rabbit, central choroid, topical, 30 μL per eye, Group 12: 10 mg/mL suspension, 50 μm particles, TRIS 0.60%, glycerol 2%, HEC 0.2%, HPMC 0.08%, Vitamin K3 1 μM, pH 6, QD for 4 days, 1 hr post dose on Day 5, read-out: Central Choroid concentration): 199 nM
- concentration at 1 h (Dutch Belted, rabbit, central retina, topical, 1 mg/mL (30 μL per eye, bilateral), Group 7: 1 mg/mL suspension, 50 μm particles, TRIS 0.60%, glycerol 2%, HEC 0.2%, HPMC 0.08%, Vitamin K3 1 μM, pH 6, QD for 4 days, 1 hr post dose on Day 5, read-out: Central Retina concentration): 25.6 nM
- concentration at 1 h (Dutch Belted, rabbit, central retina, topical, 2 mg/mL (30 μL per eye, bilateral), Group 9: 2 mg/mL suspension, 50 μm particles, TRIS 0.60%, glycerol 2%, HEC 0.2%, HPMC 0.08%, Vitamin K3 1 μM, pH 6, QD for 4 days, 1 hr post dose on Day 5, read-out: Central Retina concentration): 63.4 nM
- concentration at 1 h (Dutch Belted, rabbit, central retina, topical, 4 mg/mL (30 μL per eye, bilateral), Group 5: 4 mg/mL suspension (Control), 30 μm particles (Table 19-1) / Native (≈50) (Table 19-2), TRIS 0.60%, glycerol 2%, HEC 0.2%, HPMC 0.08%, Vitamin K3 1 μM, pH 6, QD for 4 days, 1 hr post dose on Day 5, read-out: Central Retina concentration): 44.2 nM
- concentration at 1 h (Dutch Belted, rabbit, central retina, topical, 4 mg/mL, 30 μL per eye, pH 6, Group 1: 4 mg/mL Ophthalmic Solution, pH 6 (Control), QD for 4 days, 1 hr post dose on Day 5, read-out: Central Retina concentration): 55.1 nM
- concentration at 1 h (Dutch Belted, rabbit, central retina, topical, 30 μL per eye, Group 11: 6 mg/mL suspension, 50 μm particles, TRIS 0.60%, glycerol 2%, HEC 0.2%, HPMC 0.08%, Vitamin K3 1 μM, pH 6, QD for 4 days, 1 hr post dose on Day 5, read-out: Central Retina concentration): 91.5 nM
- concentration at 1 h (Dutch Belted, rabbit, central retina, topical, 30 μL per eye, Group 12: 10 mg/mL suspension, 50 μm particles, TRIS 0.60%, glycerol 2%, HEC 0.2%, HPMC 0.08%, Vitamin K3 1 μM, pH 6, QD for 4 days, 1 hr post dose on Day 5, read-out: Central Retina concentration): 114 nM
- concentration at 1 h (Dutch Belted, rabbit, cornea, topical, 1 mg/mL (30 μL per eye, bilateral), Group 7: 1 mg/mL suspension, 50 μm particles, TRIS 0.60%, glycerol 2%, HEC 0.2%, HPMC 0.08%, Vitamin K3 1 μM, pH 6, QD for 4 days, 1 hr post dose on Day 5, read-out: Cornea concentration): 1240 nM
- concentration at 1 h (Dutch Belted, rabbit, cornea, topical, 2 mg/mL (30 μL per eye, bilateral), Group 9: 2 mg/mL suspension, 50 μm particles, TRIS 0.60%, glycerol 2%, HEC 0.2%, HPMC 0.08%, Vitamin K3 1 μM, pH 6, QD for 4 days, 1 hr post dose on Day 5, read-out: Cornea concentration): 2280 nM
- concentration at 1 h (Dutch Belted, rabbit, cornea, topical, 4 mg/mL (30 μL per eye, bilateral), Group 5: 4 mg/mL suspension (Control), 30 μm particles (Table 19-1) / Native (≈50) (Table 19-2), TRIS 0.60%, glycerol 2%, HEC 0.2%, HPMC 0.08%, Vitamin K3 1 μM, pH 6, QD for 4 days, 1 hr post dose on Day 5, read-out: Cornea concentration): 4470 nM
- concentration at 1 h (Dutch Belted, rabbit, cornea, topical, 4 mg/mL, 30 μL per eye, pH 6, Group 1: 4 mg/mL Ophthalmic Solution, pH 6 (Control), QD for 4 days, 1 hr post dose on Day 5, read-out: Cornea concentration): 14300 nM
- concentration at 1 h (Dutch Belted, rabbit, cornea, topical, 30 μL per eye, Group 10: 2 mg/mL suspension, 50 μm particles, TRIS 0.60%, glycerol 2%, HEC 0.2%, HPMC 0.08%, Vitamin K3 1 μM, pH 6, BID for 4 days, 1 hr post dose on Day 5, read-out: Cornea concentration): 5000 nM
- concentration at 1 h (Dutch Belted, rabbit, cornea, topical, 30 μL per eye, Group 11: 6 mg/mL suspension, 50 μm particles, TRIS 0.60%, glycerol 2%, HEC 0.2%, HPMC 0.08%, Vitamin K3 1 μM, pH 6, QD for 4 days, 1 hr post dose on Day 5, read-out: Cornea concentration): 7070 nM
- concentration at 1 h (Dutch Belted, rabbit, cornea, topical, 30 μL per eye, Group 12: 10 mg/mL suspension, 50 μm particles, TRIS 0.60%, glycerol 2%, HEC 0.2%, HPMC 0.08%, Vitamin K3 1 μM, pH 6, QD for 4 days, 1 hr post dose on Day 5, read-out: Cornea concentration): 24700 nM
- concentration at 1 h (Dutch Belted, rabbit, plasma, topical, 1 mg/mL (30 μL per eye, bilateral), Group 7: 1 mg/mL suspension, 50 μm particles, TRIS 0.60%, glycerol 2%, HEC 0.2%, HPMC 0.08%, Vitamin K3 1 μM, pH 6, QD for 4 days, 1 hr post dose on Day 5, read-out: Plasma concentration): 2.18 nM
- concentration at 1 h (Dutch Belted, rabbit, plasma, topical, 2 mg/mL (30 μL per eye, bilateral), Group 9: 2 mg/mL suspension, 50 μm particles, TRIS 0.60%, glycerol 2%, HEC 0.2%, HPMC 0.08%, Vitamin K3 1 μM, pH 6, QD for 4 days, 1 hr post dose on Day 5, read-out: Plasma concentration): 4.05 nM
- concentration at 1 h (Dutch Belted, rabbit, plasma, topical, 4 mg/mL (30 μL per eye, bilateral), Group 5: 4 mg/mL suspension (Control), 30 μm particles (Table 19-1) / Native (≈50) (Table 19-2), TRIS 0.60%, glycerol 2%, HEC 0.2%, HPMC 0.08%, Vitamin K3 1 μM, pH 6, QD for 4 days, 1 hr post dose on Day 5, read-out: Plasma concentration): 6.26 nM
- concentration at 1 h (Dutch Belted, rabbit, plasma, topical, 4 mg/mL, 30 μL per eye, pH 6, Group 1: 4 mg/mL Ophthalmic Solution, pH 6 (Control), QD for 4 days, 1 hr post dose on Day 5, read-out: Plasma concentration): 4.28 nM
- concentration at 1 h (Dutch Belted, rabbit, plasma, topical, 30 μL per eye, Group 11: 6 mg/mL suspension, 50 μm particles, TRIS 0.60%, glycerol 2%, HEC 0.2%, HPMC 0.08%, Vitamin K3 1 μM, pH 6, QD for 4 days, 1 hr post dose on Day 5, read-out: Plasma concentration): 7.72 nM
- concentration at 1 h (Dutch Belted, rabbit, plasma, topical, 30 μL per eye, Group 12: 10 mg/mL suspension, 50 μm particles, TRIS 0.60%, glycerol 2%, HEC 0.2%, HPMC 0.08%, Vitamin K3 1 μM, pH 6, QD for 4 days, 1 hr post dose on Day 5, read-out: Plasma concentration): 8.61 nM
- Plasma concentration (Group 2: 4 mg/mL suspension, 30 μm particles, TRIS 0.60%, glycerol 2%, HEC 0.2%, HPMC 0.08%, Vitamin K3 1 μM, pH 6, QD for 4 days, 1 hr post dose on Day 5): 4.64 nM
- concentration at 1 h (Group 2: 4 mg/mL suspension, 30 μm particles, TRIS 0.60%, glycerol 2%, HEC 0.2%, HPMC 0.08%, Vitamin K3 1 μM, pH 6, QD for 4 days, 1 hr post dose on Day 5, read-out: Central Choroid concentration): 135 nM
- concentration at 1 h (Group 2: 4 mg/mL suspension, 30 μm particles, TRIS 0.60%, glycerol 2%, HEC 0.2%, HPMC 0.08%, Vitamin K3 1 μM, pH 6, QD for 4 days, 1 hr post dose on Day 5, read-out: Central Retina concentration): 50.6 nM
- concentration at 1 h (Group 2: 4 mg/mL suspension, 30 μm particles, TRIS 0.60%, glycerol 2%, HEC 0.2%, HPMC 0.08%, Vitamin K3 1 μM, pH 6, QD for 4 days, 1 hr post dose on Day 5, read-out: Cornea concentration): 7480 nM
- Plasma concentration (Group 3: 4 mg/mL suspension, 3 μm particles, TRIS 0.60%, glycerol 2%, HEC 0.2%, HPMC 0.08%, Vitamin K3 1 μM, pH 6, QD for 4 days, 1 hr post dose on Day 5): 7.04 nM
